Test results: PubChem BioAssay AID330 (DTP/NCI, 2004)
“And” between values parts separate entries of the source, which are not always exact repeats. Identical values can stand only once. Inconclusive results and toxic doses are left out. The calls were made as follows: active = survival T/C of 150% or more; inactive = T/C below 125% in these data.

System: P388 leukemia ip, CD2F1 mice, survival T/C
Assay: NCI In Vivo Anticancer Drug Screen. Data for tumor model P388 Leukemia (intraperitoneal) in CD2F1 (CDF1) mice
Conditions: endpoint: median survival time, higher = longer survival
Procedure, shortened: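 Mice carrying the transplanted tumor received test compound or vehicle. Survival was recorded in each group, and the value is the treated-group measurement divided by that of the vehicle-treated control group.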

[1] = dose: 60.0 mg/kg/injection, schedule: Q01DX005 (ip), vehicle: saline with Tween-80
[2] = dose: 50.0 mg/kg/injection, schedule: Q01DX005 (ip), vehicle: Klucel (hydroxypropylcellulose) (HPC)
[3] = dose: 100.0 mg/kg/injection, schedule: Q01DX005 (ip), vehicle: Klucel (hydroxypropylcellulose) (HPC)
[4] = dose: 200.0 mg/kg/injection, schedule: Q01DX005 (ip), vehicle: Klucel (hydroxypropylcellulose) (HPC)
[5] = dose: 100.0 mg/kg/injection, schedule: Q01DX009 (ip), vehicle: Klucel (hydroxypropylcellulose) (HPC)
[6] = dose: 50.0 mg/kg/injection, schedule: Q04DX003 (ip), vehicle: saline with Tween-80
[7] = dose: 100.0 mg/kg/injection, schedule: Q04DX003 (ip), vehicle: saline with Tween-80

Measured: T/C

CCCSC(=O)Nc1ccc(Cc2ccc(NC(=O)SCCC)cc2)cc1
inactive: [1] 90 % of control | dose: 120.0 mg/kg/injection, schedule: Q01DX005 (ip), vehicle: saline with Tween-80 87 % of control | dose: 240.0 mg/kg/injection, schedule: Q01DX005 (ip), vehicle: saline with Tween-80 99 % of control

CN1CCCc2c1n(-c1ccccc1)c(=O)n(-c1ccccc1)c2=O
inactive: [2] 100 % of control | [3] 101 % of control | [4] 99 % of control

CCOC(=O)C(CC)C(=O)c1ccccc1 (configuration not stated)
inactive: dose: 75.0 mg/kg/injection, schedule: Q01DX009 (ip), vehicle: saline with Tween-80 105 % of control | dose: 150.0 mg/kg/injection, schedule: Q01DX009 (ip), vehicle: saline with Tween-80 109 % of control | dose: 300.0 mg/kg/injection, schedule: Q01DX009 (ip), vehicle: saline with Tween-80 112 % of control

O=C1c2c(O)ccc(O)c2C(=O)c2c(NCCCO)ccc(NCCCO)c21
inactive: dose: 0.62 mg/kg/injection, schedule: Q01DX009 (ip), vehicle: acid diluted with saline 110 % of control | dose: 1.25 mg/kg/injection, schedule: Q01DX009 (ip), vehicle: acid diluted with saline 103 % of control | dose: 2.5 mg/kg/injection, schedule: Q01DX009 (ip), vehicle: acid diluted with saline 100 % of control | dose: 5.0 mg/kg/injection, schedule: Q01DX009 (ip), vehicle: acid diluted with saline 107 % of control | dose: 10.0 mg/kg/injection, schedule: Q01DX009 (ip), vehicle: acid diluted with saline 98 % of control | dose: 20.0 mg/kg/injection, schedule: Q01DX009 (ip), vehicle: acid diluted with saline 100 % of control | dose: 40.0 mg/kg/injection, schedule: Q01DX009 (ip), vehicle: acid diluted with saline 100 % of control | dose: 80.0 mg/kg/injection, schedule: Q01DX009 (ip), vehicle: acid diluted with saline 91 % of control

CN(C)CC/C=C1\c2ccccc2Sc2ccc(Cl)cc21
inactive: dose: 12.5 mg/kg/injection, schedule: Q01DX005 (ip), vehicle: Klucel (hydroxypropylcellulose) (HPC) 107 % of control and 112 % of control | dose: 25.0 mg/kg/injection, schedule: Q01DX005 (ip), vehicle: Klucel (hydroxypropylcellulose) (HPC) 117 % of control and 120 % of control | [2] 117 % of control

Cc1sc(C)c2c1C[Se]Cc1c(C)sc(C)c1C[Se]C2
inactive: dose: 400.0 mg/kg/injection, schedule: Q01DX001 (ip), vehicle: saline with Tween-80 87 % of control

ClC1(Cl)C(=C=C2C3CC4CC(C3)CC2C4)C12C1CC3CC(C1)CC2C3 (configuration not stated)
inactive: dose: 25.0 mg/kg/injection, schedule: Q01DX009 (ip), vehicle: Klucel (hydroxypropylcellulose) (HPC) 100 % of control | dose: 50.0 mg/kg/injection, schedule: Q01DX008 (ip), vehicle: Klucel (hydroxypropylcellulose) (HPC) 101 % of control | dose: 100.0 mg/kg/injection, schedule: Q01DX008 (ip), vehicle: Klucel (hydroxypropylcellulose) (HPC) 101 % of control | [5] 94 % of control | dose: 200.0 mg/kg/injection, schedule: Q01DX008 (ip), vehicle: Klucel (hydroxypropylcellulose) (HPC) 87 % of control

OCC12C=COC1OC2(c1ccccc1)c1ccccc1 (configuration not stated)
inactive: dose: 15.0 mg/kg/injection, schedule: Q01DX005 (ip), vehicle: saline with Tween-80 100 % of control | dose: 30.0 mg/kg/injection, schedule: Q01DX005 (ip), vehicle: saline with Tween-80 95 % of control | [1] 89 % of control and 98 % of control

CCc1cccc2c(NCCCCNc3c4ccccc4nc4c(CC)cccc34)c3ccccc3nc12
inactive: dose: 0.62 mg/kg/injection, schedule: Q## X009 (ip), vehicle: lactic acid 93 % of control | dose: 1.25 mg/kg/injection, schedule: Q## X009 (ip), vehicle: lactic acid 100 % of control | dose: 2.5 mg/kg/injection, schedule: Q## X009 (ip), vehicle: lactic acid 99 % of control | dose: 5.0 mg/kg/injection, schedule: Q## X009 (ip), vehicle: lactic acid 91 % of control

O=C(N/N=C/c1ccccc1O)C(=O)NC1CC1
inactive: dose: 50.0 mg/kg/injection, schedule: Q01DX009 (ip), vehicle: saline with Tween-80 92 % of control | dose: 100.0 mg/kg/injection, schedule: Q01DX009 (ip), vehicle: saline with Tween-80 91 % of control | dose: 200.0 mg/kg/injection, schedule: Q01DX009 (ip), vehicle: saline with Tween-80 91 % of control

COC(=O)c1ccc(SCCCN2CCOCC2)cc1
inactive: dose: 100.0 mg/kg/injection, schedule: Q01DX009 (ip), vehicle: saline 91 % of control | dose: 176.0 mg/kg/injection, schedule: Q04DX003 (ip), vehicle: saline 90 % of control | dose: 200.0 mg/kg/injection, schedule: Q01DX009 (ip), vehicle: saline 91 % of control | dose: 264.0 mg/kg/injection, schedule: Q04DX003 (ip), vehicle: saline 95 % of control | dose: 400.0 mg/kg/injection, schedule: Q01DX009 (ip), vehicle: saline 100 % of control | dose: 400.0 mg/kg/injection, schedule: Q04DX003 (ip), vehicle: saline 104 % of control

CC(C)c1nc2c(c(=O)o1)CCS2
inactive: [2] 100 % of control | [3] 98 % of control | [4] 98 % of control

O=C1c2ccccc2C(=O)N1CCC(=O)n1ccnc1
inactive: dose: 17.5 mg/kg/injection, schedule: Q01DX005 (ip), vehicle: Klucel (hydroxypropylcellulose) (HPC) 104 % of control | dose: 35.0 mg/kg/injection, schedule: Q01DX005 (ip), vehicle: Klucel (hydroxypropylcellulose) (HPC) 97 % of control | dose: 70.0 mg/kg/injection, schedule: Q01DX005 (ip), vehicle: Klucel (hydroxypropylcellulose) (HPC) 99 % of control

O=c1ccc(=O)n(CCc2ccccn2)[nH]1
inactive: dose: 50.0 mg/kg/injection, schedule: Q01DX009 (ip), vehicle: Klucel (hydroxypropylcellulose) (HPC) 112 % of control | [5] 109 % of control | dose: 200.0 mg/kg/injection, schedule: Q01DX009 (ip), vehicle: Klucel (hydroxypropylcellulose) (HPC) 108 % of control | dose: 400.0 mg/kg/injection, schedule: Q01DX009 (ip), vehicle: Klucel (hydroxypropylcellulose) (HPC) 106 % of control

COc1ccc2c(c1)CCC1(C)C2=CC(=O)/C1=C\[O-].COc1ccc2c(c1)CCC1(C)C2=CC(=O)/C1=C\[O-].[Cu+2] (configuration not stated)
inactive: dose: 25.0 mg/kg/injection, schedule: Q04DX003 (ip), vehicle: saline with Tween-80 90 % of control | [6] 90 % of control | [7] 86 % of control

COc1ccccc1C1N(C)CCCN1C
inactive: dose: 6.25 mg/kg/injection, schedule: Q01DX009 (ip), vehicle: saline 95 % of control | dose: 12.5 mg/kg/injection, schedule: Q01DX009 (ip), vehicle: saline 95 % of control | dose: 25.0 mg/kg/injection, schedule: Q01DX009 (ip), vehicle: saline 100 % of control

Cc1cc2c(C#N)c3ccccc3c(=O)n2c2ccccc12
inactive: [2] 98 % of control | [3] 96 % of control | [4] 100 % of control

N#Cc1c(-c2ccccc2)c(-c2ccccc2)nn(CC(=O)O)c1=O
inactive: dose: 12.5 mg/kg/injection, schedule: Q01DX005 (ip), vehicle: sodium bicarbonate 102 % of control | dose: 25.0 mg/kg/injection, schedule: Q01DX005 (ip), vehicle: sodium bicarbonate 100 % of control | dose: 25.0 mg/kg/injection, schedule: Q04DX002 (ip), vehicle: distilled water + Tween-80 101 % of control | dose: 50.0 mg/kg/injection, schedule: Q01DX005 (ip), vehicle: sodium bicarbonate 101 % of control | dose: 50.0 mg/kg/injection, schedule: Q04DX002 (ip), vehicle: distilled water + Tween-80 100 % of control | dose: 100.0 mg/kg/injection, schedule: Q01DX005 (ip), vehicle: sodium bicarbonate 102 % of control | dose: 100.0 mg/kg/injection, schedule: Q04DX002 (ip), vehicle: distilled water + Tween-80 101 % of control | dose: 200.0 mg/kg/injection, schedule: Q01DX005 (ip), vehicle: sodium bicarbonate 92 % of control | dose: 200.0 mg/kg/injection, schedule: Q04DX002 (ip), vehicle: distilled water + Tween-80 99 % of control

CC(=O)/C(=C\c1ccc(/C=C(\C(C)=O)C(=O)CCN(C)C)cc1)C(=O)CCN(C)C
inactive: dose: 50.0 mg/kg/injection, schedule: Q01DX005 (ip), vehicle: saline with Tween-80 109 % of control and 118 % of control | dose: 100.0 mg/kg/injection, schedule: Q01DX005 (ip), vehicle: saline with Tween-80 120 % of control | dose: 200.0 mg/kg/injection, schedule: Q01DX005 (ip), vehicle: saline with Tween-80 105 % of control | dose: 400.0 mg/kg/injection, schedule: Q01DX005 (ip), vehicle: saline with Tween-80 120 % of control

CCOC(=O)C(O)(CC)CCC(C)C (configuration not stated)
inactive: [6] 100 % of control | [7] 100 % of control | dose: 200.0 mg/kg/injection, schedule: Q04DX003 (ip), vehicle: saline with Tween-80 100 % of control
